One experiment concerns the target T1, Digitalis purpurea 2 (Digitalis purpurea, UniProt D2JSQ9).
T1 construct: gene P5BR2; synthetic gene in pOPINF, N-terminal His6 tag (no cleavage told), E. coli
Put plainly: NADPH consumption at […] nm. It counts as biochemical. Particulars: 250 μM NADPH, 50 mM HEPES/NaOH pH 7.0, 100 mM NaCl, 25 °C, 0.1% tetrahydrofuran; read-out: 8-Oxogeranial / KM.

The target in experiment [1] is T2, Catharanthus roseus 5 (PRISE5, ISY) (Catharanthus roseus, UniProt K7WDL7).
T2 construct: codon-optimized gene from earlier study in pOPINF, N-terminal His6 tag (no cleavage told), E. coli
Put plainly: NADPH consumption at […] nm. It counts as biochemical. To be noted: read-out: Progesterone / KM; 250 μM NADPH, 50 mM HEPES/NaOH pH 7.0, 100 mM NaCl, 25 °C, 1.5% ethanol.

In the case of `C/C(C=O)=C\CC/C(C)=C/C=O` [8-oxogeranial], the Km at Digitalis purpurea 2 was 17.7 ± 5.9 µM.

For `CC(=O)[C@H]1CC[C@H]2[C@@H]3CCC4=CC(=O)CC[C@]4(C)[C@H]3CC[C@]12C` [progesterone], the Km in experiment [1] amounted to 28.8 ± 11.5 µM.
